Reference: patent US20210155905A1, “Method for Obtaining Haploid Cells” (Centre National de la Recherche Scientifique (CNRS), priority 2017, published 2021)
Entries after “also recorded” stand apart in the source; their conditions may differ.

Tests used:
3T3 cells [1] = assay: FACS DNA content: appearance of the 1C (sub-G1) cell population 20 hours after release from G0; format: cell-based, mouse; conditions: ΔDboxGeminin-expressing cells, 9 μM RO-3306 upon G0/G1 release
Experimental: (§1) FIG. 31 represents FACS profiles showing the DNA content (propidium iodide staining) of 3T3 cells 20 hours after release from G0 in the presence (+ΔDboxGem) or not (−ΔDboxGem) of doxycycline alone (CTRL—first column) or combined with RO-3306 treatment (a CDK1 inhibitor that prevents mitotic entry second column) or after UV treatment (performed upon release to induce DNA damage; third column).
For PI, BrdU/PI and ^ser10PH3/PI experiments, cells were fixed in cold 70% Ethanol/PBS and then processed for indirect immunofluorescence, as described above. To detect cyclin B1/PI, MPM2/PI and FLAG/PI, cells were fixed in 3% PFA in PBS at RT for 15 min, permeabilized in 0.5% Triton X-100 for 5 min and processed for indirect immunofluorescence. For DNA staining, cells were treated with 50 μg·mL^−1 RNase A (Sigma, R6513) and stained with 25 μg·mL^−1 propidium iodide.
(§2) To express CDT1, 3T3 cells were transfected with 5 μg of plasmid pCDNA3-CDT1 or empty vector using Nucleofector TN II; Amaxa Biosystem; AAD-1001N. To induce DNA damage, synchronized cells were exposed to UV (0.002 joules) using the Bioblock Scientific BLX-254 upon release or incubated with 2 mM hydroxyurea for 20 hours. To block mitotic progression, 9 μM RO-3306 was added in the medium upon G0/G1 release.

3T3 cells [2] = assay: Western blotting of cleaved caspase 3 (apoptosis); format: cell-based, mouse; conditions: synchronized cells, hydroxyurea for 20 hours
Experimental: as §1
FIG. 32 is a control western blot used as control of the experiment of FIG. 31. […] A: next G1, B: HU and C: U.V. C3*: cleaved caspase 3 and H3: histone H3.
as §2
To prepare total cell extracts, cells were harvested, washed twice with PBS, lysed in 2× Laemmli buffer, sonicated (3×30 seconds) and boiled for 5 min. To obtain chromatin-enriched fractions, a protocol adapted from Lutzmann et al. [Lutzmann et al. 2012 Molecular Cell, 47, 523-534] was used. […]

SMILES | appearance of the 1C DNA content cell population (3T3 cells [1]) | apoptosis (cleaved caspase 3) (3T3 cells [2])
O=C1NC(=NCc2cccs2)S/C1=C\c1ccc2ncccc2c1 [RO-3306] | prevented mitotic entry and the appearance of the 10 DNA cell population; also recorded: totally prevented their appearance | 
NC(=O)NO [hydroxyurea] |  | did not induce detectable apoptosis
